# ChEMBL document CHEMBL5247654 (J Med Chem, 2023)
# Activity calls are given as the source filed them. No cut-off for these calls is given here.
# Key:
# [1] = molecular target: T1, Dual specificity tyrosine-phosphorylation-regulated kinase 1A (Homo sapiens, UniProt Q13627); experiment: Inhibition of human C-terminal his tagged DYRK1A (26 to 490 residues) transfected in HEK293T cells assessed as inhibition of cyclin D1 phosphorylation at 10 uM incubated for 3 hrs by Western blot analysis; type: cell-based
# [2] = molecular target: T2, Glycogen synthase kinase-3 beta (Homo sapiens, UniProt P49841); experiment: Inhibition of human C-terminal his tagged GSK3beta (26 to 383 residues) transfected in HEK293T cells assessed as inhibition of cyclin D1 phosphorylation at 10 uM incubated for 3 hrs by Western blot analysis; type: cell-based
# Target sequence in this assay (P49841 whole entry, looked up, the tested form may be a part): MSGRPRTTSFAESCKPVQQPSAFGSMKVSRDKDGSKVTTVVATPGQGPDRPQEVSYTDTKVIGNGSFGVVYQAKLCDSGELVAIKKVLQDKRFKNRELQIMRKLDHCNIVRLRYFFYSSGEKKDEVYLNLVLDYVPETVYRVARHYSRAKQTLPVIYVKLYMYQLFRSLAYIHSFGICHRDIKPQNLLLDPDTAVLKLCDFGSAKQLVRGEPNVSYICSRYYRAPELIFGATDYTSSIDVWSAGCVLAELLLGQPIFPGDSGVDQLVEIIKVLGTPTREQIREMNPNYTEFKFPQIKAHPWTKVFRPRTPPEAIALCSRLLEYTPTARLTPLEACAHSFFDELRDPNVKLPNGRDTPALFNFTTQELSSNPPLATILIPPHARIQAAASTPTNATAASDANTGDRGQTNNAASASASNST
# [3] = molecular target: T2, Glycogen synthase kinase-3 beta; experiment: Inhibition human C-terminal his tagged m-Cherry GSK3beta (26 to 383 residues) in HEK293T cells assessed as reversal of ionomycin stimulated NFAT cellular localization at 5 uM incubated for 3 hrs followed by ionomycin stimulation for 1 hr by Hoechst 33258 staining based fluorescence microscopic analysis; type: cell-based; details: time 4.0 hrs
# Target sequence in this assay (P49841 whole entry, looked up, the tested form may be a part): as above
# [4] = molecular target: T2, Glycogen synthase kinase-3 beta; details: dose 500.0 nM
# Target sequence in this assay (P49841 whole entry, looked up, the tested form may be a part): as above
# [5] = molecular target: T1, Dual specificity tyrosine-phosphorylation-regulated kinase 1A; experiment: Binding affinity to human C-terminal his tagged DYRK1A (26 to 490 residues) expressed in Escherichia coli at 100 uM by radiometric analysis
# [6] = molecular target: T1, Dual specificity tyrosine-phosphorylation-regulated kinase 1A; experiment: Inhibition of human C-terminal his tagged DYRK1A (26 to 490 residues) expressed in Escherichia coli using DYRKtide (RRRFRPASPLRGPPK) as peptide substrate incubated for 1 hr in presence of ATP by cook activity assay
# [7] = molecular target: T2, Glycogen synthase kinase-3 beta; experiment: Inhibition of human C-terminal his tagged GSK3beta (26 to 383 residues) expressed in Escherichia coli using GYSI(YRRAAVPPSPSLSRHSSPHQ(pS)EDEEE) as peptide substrate incubated for 1 hr in presence of ATP by cook activity assay
# Target sequence in this assay (P49841 whole entry, the tested form may be a part): as the sequence (P49841 whole entry, looked up, the tested form may be a part) above
# [8] = molecular target: T2, Glycogen synthase kinase-3 beta; experiment: Stabilization of human C-terminal his tagged GSK3beta (26 to 383 residues) expressed in Escherichia coli assessed as change in melting temperature at 10 uM by SYPRO orange dye based thermal shift assay
# Target sequence in this assay (P49841 whole entry, looked up, the tested form may be a part): as the sequence (P49841 whole entry, looked up, the tested form may be a part) above
inhibition [1],inhibition [2],inhibition [3],inhibition [4],Activity [5],IC50 [6],Structure (SMILES),IC50 [7],Tm [8]
100%,100%,Active,50%,–,–,O=C(O)c1ccc2c(c1)nc(Nc1cccc(Cl)c1)c1ccncc12,–,–
Active,Active,Active,–,inactive,Not Active,O=C1Cc2c([nH]c3ccc(Br)cc23)-c2ncccc2N1 [AZAKENPAULLONE],–,–

Structure (SMILES),inhibition [1],inhibition [2],inhibition [3],inhibition [4],Activity [5],IC50 [6],IC50 [7],Tm [8]
COc1ccc2c(c1)[nH]c1c(C)nccc12 [HARMINE],Active,Active,–,–,–,–,Not Active,inactive
